Laboratory results from ChEMBL document CHEMBL1124722, “Synthesis and anticonvulsant activity of 2-benzylglutarimides” (J Med Chem, 1990).
Calls of active or inactive are those of the source. The calls are words filed in the database; no cut-off is given here.

Tests used:
[1] = organism: Mus musculus; test: Time of peak effect was determined for toxicity; format: functional
[2] = organism: Mus musculus; test: Time of peak effect activity against maximal electroshock induced seizures; format: functional
[3] = organism: Mus musculus; test: Time of peak effect toxicity against maximal electroshock induced seizures; format: organism-based; settings: in vivo
[4] = test system: Rattus norvegicus; test: The cytotoxicity after intraperitoneal administration in rat.; format: functional; settings: ip
[5] = organism: Mus musculus; test: Median hypnotic dose by loss of righting reflex.; format: functional
[6] = Median lethal dose was measured after 24 hr.; format: organism-based; settings: mouse, in vivo
[7] = organism: Mus musculus; test: Time of peak effect was determined for activity in MES; format: functional; parameters: unit not given here
[8] = test system: Mus musculus; test: The effective dose of compound was tested against subcutaneous administered Metrazol induced seizures after intraperitoneal administration; Not effective; format: functional, organism-based
[9] = test system: Rattus norvegicus; test: The effective dose of compound was tested against maximal electroshock induced seizures after oral administration in rat; format: functional
[10] = test system: Rattus norvegicus; test: The effective dose of compound was tested against subcutaneous administered Metrazol induced seizures in rat; Not effective; format: functional, organism-based
[11] = test system: Mus musculus; test: The compound was tested for anticonvulsant activity against (subcutaneous administered) bicuculline induced seizures after intraperitoneal administration; Protected at 100 mg/ kg; format: functional, organism-based; parameters: dose 100 mg/ kg
[12] = test system: Mus musculus; test: The compound was tested for anticonvulsant activity against (subcutaneous administered) Metrazol induced seizures after intraperitoneal administration; No protection up to 100 mg/kg; format: functional, organism-based; parameters: dose 100 mg/kg
[13] = organism: Mus musculus; test: Median hypnotic dose by loss of righting reflex; format: functional
[14] = organism: Mus musculus; test: Median lethal dose was measured after 24 hr; format: functional
[15] = in vivo; settings: rat, ip
[16] = test system: Mus musculus; test: Anticonvulsant activity against subcutaneous picrotoxin induced seizures after intraperitoneal administration; format: functional
[17] = test system: Mus musculus; test: Anticonvulsant activity against maximal electroshock induced seizures (MES) after 0.5 hr at 300 mg/kg; Active; format: functional, organism-based; parameters: dose 300 mg/kg
[18] = test system: Mus musculus; test: The compound was tested for anticonvulsant activity against (subcutaneous administered) bicuculline induced seizures after intraperitoneal administration; format: functional
[19] = test system: Mus musculus; test: The effective dose of compound was tested against maximal electroshock induced seizures after oral administration in mice; format: functional
[20] = test system: Mus musculus; test: The compound was tested for anticonvulsant activity against (subcutaneous administered) strychnine induced seizures after intraperitoneal administration; format: functional
[21] = test system: Mus musculus; test: The effective dose of compound was tested against maximal electroshock induced seizures after intraperitoneal administration; format: functional; settings: ip
[22] = test system: Mus musculus; test: The compound was tested for anticonvulsant activity against (subcutaneous administered) Metrazol induced seizures after intraperitoneal administration; format: functional
[23] = test system: Mus musculus; test: The Neurologic toxicity by measuring rotarod test after 0.5 h; No toxicity up to 300 mg/kg; format: organism-based; parameters: dose 300 mg/kg; settings: in vivo
[24] = test system: Mus musculus; test: The Neurologic toxicity by measuring rotarod test after 4 hr; No toxicity up to 300 mg/kg; format: organism-based; parameters: dose 300 mg/kg; settings: in vivo
[25] = Protective index was calculated (TD50/ED50) in MES assay in mice after oral administration; format: functional
[26] = test system: Rattus norvegicus; test: The effective dose of compound (given orally) was tested against subcutaneous administered Metrazol induced seizures in rat; format: functional
[27] = The cytotoxicity after intraperitoneal administration; format: organism-based; settings: mouse, in vivo, ip
[28] = Protective index was calculated (TD50/ED50) in MES assay in rat after oral administration; format: functional
[29] = test system: Mus musculus; test: The effective dose of compound was tested against subcutaneous administered Metrazol induced seizures after intraperitoneal administration.; format: functional
[30] = Ratio of LD50/HD50 was determined; format: functional
[31] = Protective index was calculated (TD50/ED50) in scMET assay in rat after oral administration; format: functional
[32] = test system: Mus musculus; test: Anticonvulsant activity against maximal electroshock induced seizures (MES) after 4 hr at 300 mg/kg; Active; format: functional, organism-based; parameters: dose 300 mg/kg
[33] = The cytotoxicity (given orally) […] in rat; format: organism-based; settings: in vivo
[34] = Protective index was calculated (TD50/ED50) in scMET assay in mice after oral administration; format: functional
[35] = test system: Mus musculus; test: The effective dose of compound (given orally) was tested against subcutaneous administered Metrazol induced seizures in mice; format: functional
[36] = test system: Mus musculus; test: Anticonvulsant activity against subcutaneous administered Metrazol induced seizures (scMET) after 0.5 hr at 30 mg/kg; Active; format: functional, organism-based; parameters: dose 30 mg/kg
[37] = Protective index was calculated (TD50/ED50) in MES assay in mice after intraperitoneal administration; format: functional
[38] = test system: Mus musculus; test: Anticonvulsant activity against subcutaneous administered Metrazol induced seizures (scMET) after 4 hr at 300 mg/kg; Active; format: functional, organism-based; parameters: dose 300 mg/kg
[39] = The cytotoxicity (given orally) […] in mice; format: organism-based; settings: mouse, in vivo
[40] = Protective index was calculated (TD50/ED50) in scMET assay in mice after intraperitoneal administration; format: functional
[41] = test system: Mus musculus; test: Anticonvulsant activity against subcutaneous administered Metrazol induced seizures (scMET) after 0.5 hr; Not active up to 300 mg/kg; format: functional, organism-based; parameters: dose 300 mg/kg
[42] = test system: Mus musculus; test: Anticonvulsant activity against maximal electroshock induced seizures after 4 hr; Not active up to 300 mg/kg.; format: functional, organism-based; parameters: dose 300 mg/kg
[43] = test system: Mus musculus; test: The Neurologic toxicity by measuring rotarod after 4 hr; No toxicity up to 300 mg/kg; format: organism-based; parameters: dose 300 mg/kg; settings: in vivo
[44] = test system: Mus musculus; test: Anticonvulsant activity against maximal electroshock induced seizures (MES) after 0.5 h; Not active up to 300 mg/kg; format: functional, organism-based; parameters: dose 300 mg/kg
[45] = test system: Mus musculus; test: The effective dose of compound was tested against subcutaneous administered Metrazol induced seizures after intraperitoneal administration; format: functional
[46] = Protective index was calculated (TD50/ED50) in scMet assay in mice after intraperitoneal administration; format: functional
[47] = test system: Mus musculus; test: Anticonvulsant activity against subcutaneous administered Metrazol induced seizures (scMET) after 0.5 hr at 300 mg/kg; Active; format: functional, organism-based; parameters: dose 300 mg/kg
[48] = test system: Mus musculus; test: The effective dose of compound was tested against maximal electroshock induced seizures after intraperitoneal administration; Not active up to 300 mg/kg; format: functional, organism-based; parameters: dose 300 mg/kg

`CCC1(c2ccccc2)C(=O)NC(=O)NC1=O` [PHENOBARBITAL] showed a TPE [1] of 0.5, an Activity [2] of 1 h and a Time of peak effect [3] of 0.5 h. The ED50 [4] was 61.1 mg/kg, the HD50 [5] was 135.45 mg/kg and the LD50 at 24 h [6] was 265 mg/kg. For the same compound, the TPE [7] was 1.

In the case of `NC(=O)N1c2ccccc2C=Cc2ccccc21` [CARBAMAZEPINE], the ED50 [8] is reported as “inactive”, the ED50 [9] is reported as 8.5 mg/kg and the TPE [2] is reported as 0.25. For the same compound, the ED50 [10] was “inactive”, the ED50 [11] was “Active” and the TPE [3] was 0.25. For the same compound, the ED50 [12] was “inactive”, the HD50 [13] was 172.24 mg/kg and the LD50 [14] was 629 mg/kg. For the same compound, the TD50 [15] was 813 mg/kg.

For `O=C1CCC(Cc2ccc(Cl)cc2)C(=O)N1` (centres undefined), the ED50 [16] was 158 mg/kg, the Activity [17] was “Active” and the ED50 [18] was 249 mg/kg. It also gave an ED50 [9] of 58.3 mg/kg, an ED50 [19] of 579 mg/kg and an ED50 [20] of 232 mg/kg. It also gave a TPE [2] of 0.5, a TPE [3] of 1 and an ED50 [21] of 137 mg/kg. For the same compound, the ED50 [22] was 72.8 mg/kg, the Toxicity [23] was “No toxicity up to 300 mg/kg” and the Toxicity [24] was “No toxicity up to 300 mg/kg”. The HD50 [13] was 1282.47 mg/kg, the Ratio [25] was greater than 5.18 and the ED50 [26] was 36.4 mg/kg. The TD50 [27] was 1220 mg/kg, the Ratio [28] was 1.17 and the LD50 [14] was greater than 2400 mg/kg. For the same compound, the ED50 [29] was 72.8 mg/kg, the Ratio [30] was greater than 1.87 and the Ratio [31] was 1.87. The Activity [32] was “Active”, the TD50 [33] was 68.2 mg/kg and the Ratio [34] was greater than 10.95. For the same compound, the ED50 [35] was 274 mg/kg, the Activity [36] was “Active” and the Ratio [37] was 8.95. For the same compound, the Activity [38] was “Active”, the TD50 [39] was greater than 3000 mg/kg and the Ratio [40] was 16.82.

With `COc1ccc(CC2CCC(=O)NC2=O)cc1` (centres undefined) the Activity [41] was “inactive”, the Activity [42] was “inactive” and the Toxicity [23] was “No toxicity up to 300 mg/kg”. The Toxicity [43] was “No toxicity up to 300 mg/kg”, the Activity [38] was “Active” and the Activity [44] was “inactive”.

With `O=C1CCC(Cc2ccc(I)cc2)C(=O)N1` (centres undefined) the ED50 [45] was 87.2 mg/kg, the Ratio [46] was greater than 12.04 and the Activity [42] was “inactive”. For the same compound, the Toxicity [23] was “No toxicity up to 300 mg/kg”, the Toxicity [24] was “No toxicity up to 300 mg/kg” and the Activity [47] was “Active”. For the same compound, the TD50 [27] was greater than 1050 mg/kg, the ED50 [48] was “Not active up to 300 mg/kg” and the TPE [7] was 1. For the same compound, the Activity [38] was “Active” and the Activity [44] was “inactive”.
